Test results from ChEMBL document CHEMBL1201862, “PubChem BioAssay data set” (2004).
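1) Cells in 96-well plates. 2) Compound, 48 h, 5 concentrations. 3) Linear interpolation between surrounding doses. 4) Unreached endpoint = highest concentration. GI50: concentration for 50% inhibition of growth.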 Calls of active or inactive are those of the source. Rule as the data show it: active = GI50 up to about 1.1 µM and inactive = higher.

What was measured:
Assay in all cases: inhibition of tumour cell growth, NCI panel, 48 h
ACHN = tested on: ACHN
CAKI-1 = tested on: CAKI-1
CCRF-CEM = tested on: CCRF-CEM
EKVX = tested on: EKVX
HCT-116 = tested on: HCT-116
HL-60 = tested on: HL-60
HOP-62 = tested on: HOP-62
HOP-92 = tested on: HOP-92
KM-20L2 = tested on: KM-20L2
MDA-MB-435 = tested on: MDA-MB-435
NCI-H226 = tested on: NCI-H226
NCI-H522 = tested on: NCI-H522
OVCAR-3 = tested on: OVCAR-3
OVCAR-5 = tested on: OVCAR-5
RXF 393 = tested on: RXF 393
SF-295 = tested on: SF-295
SF-539 = tested on: SF-539
SK-MEL-28 = tested on: SK-MEL-28
SR = tested on: SR
TK-10 = tested on: TK-10

Structure (SMILES)	GI50 (ACHN)	GI50 (CAKI-1)	GI50 (CCRF-CEM)	GI50 (EKVX)	GI50 (HCT-116)	GI50 (HL-60)	GI50 (HOP-62)	GI50 (HOP-92)	GI50 (KM-20L2)	GI50 (MDA-MB-435)	GI50 (NCI-H226)	GI50 (NCI-H522)	GI50 (OVCAR-3)	GI50 (OVCAR-5)	GI50 (RXF 393)	GI50 (SF-295)	GI50 (SF-539)	GI50 (SK-MEL-28)	GI50 (SR)	GI50 (TK-10)
COc1cc(-c2ccc(Nc3ccccc3C(=O)O)c(OC)c2)ccc1Nc1ccccc1C(=O)O	8.69 µM (inactive)	8.69 µM (inactive)	2.38 µM (inactive)	58.7 µM (inactive)	0.792 µM (active)	1.91 µM (inactive)	8.57 µM (inactive)	41 µM (inactive)	> 56 µM (inactive)	8.59 µM (inactive)	22.6 µM (inactive)	8.87 µM (inactive)	20.6 µM (inactive)	> 37.5 µM (inactive)	21.2 µM (inactive)	11.9 µM (inactive)	5.45 µM (inactive)	33.8 µM (inactive)	0.557 µM (active)	36.6 µM (inactive)
CC[C@@]1(O)C(=O)OCc2c1c(Cl)c1n(c2=O)Cc2cc3ccccc3nc2-1	1.16 µM (inactive)	0.736 µM (active)	0.372 µM (active)	6.1 µM (inactive)	1.36 µM (inactive)	2.19 µM (inactive)	0.733 µM (active)	7.62 µM (inactive)	4.47 µM (inactive)	8.95 µM (inactive)	2.14 µM (inactive)	1.69 µM (inactive)	6.35 µM (inactive)	5.07 µM (inactive)	2.52 µM (inactive)	1.22 µM (inactive)	2.08 µM (inactive)	10.4 µM (inactive)	0.27 µM (active)	19 µM (inactive)
Cn1c2ccccc2c(=O)c2c(O)cc3c(c21)CC(C1(C)CO1)O3 (stereo not drawn)	2 µM (inactive)	2.99 µM (inactive)	0.056 µM (active)	3.08 µM (inactive)	0.935 µM (active)	0.0495 µM (active)	3.15 µM (inactive)	9.08 µM (inactive)	4.66 µM (inactive)	1.64 µM (inactive)	13.3 µM (inactive)	2.93 µM (inactive)	3.61 µM (inactive)	6.53 µM (inactive)	1.17 µM (inactive)	9.44 µM (inactive)	3.2 µM (inactive)	2.79 µM (inactive)	0.111 µM (active)	11.4 µM (inactive)
O=[N+]([O-])c1ccc(C2CC(c3ccccc3Cl)=Nc3ccccc3[S+]2[O-])cc1 (stereo not drawn)	2.01 µM (inactive)	2.48 µM (inactive)	1.48 µM (inactive)	15 µM (inactive)	1.88 µM (inactive)	1.19 µM (inactive)	7.19 µM (inactive)	15.3 µM (inactive)	2.59 µM (inactive)	–	5.86 µM (inactive)	1.15 µM (inactive)	3.48 µM (inactive)	3.71 µM (inactive)	1.8 µM (inactive)	5.55 µM (inactive)	7.19 µM (inactive)	5.18 µM (inactive)	2.84 µM (inactive)	8.02 µM (inactive)
COC(=O)CCC(=O)CC(=O)C(=O)Nc1c(Cl)cc([N+](=O)[O-])cc1Cl	> 100 µM (inactive)	61.8 µM (inactive)	57.3 µM (inactive)	51.8 µM (inactive)	42.3 µM (inactive)	> 100 µM (inactive)	> 100 µM (inactive)	38.7 µM (inactive)	> 100 µM (inactive)	–	> 100 µM (inactive)	45.3 µM (inactive)	> 100 µM (inactive)	> 100 µM (inactive)	> 100 µM (inactive)	> 100 µM (inactive)	> 100 µM (inactive)	> 100 µM (inactive)	27.2 µM (inactive)	> 100 µM (inactive)
